US7595300B2, “7-quinolyl ketolide antibacterial agents” (priority 2005, dated 2009)
Read-outs that look alike come from different tables or passages of the source.

How the values were obtained:
human hepG2 hepatocytes = assay: In vitro hepatotoxicity, resazurin and Nile Red staining; assay type: cell-based; settings: 100 μM
Protocol: In one experiment, hepatotoxicity was estimated by overnight incubation of compounds at 3, 10, 30, 100, or 300 μM with cultured rat or human hepG2 hepatocytes, followed by staining of the cells with resazurin to measure viability or with Nile Red to measure steatosis. The minimal drug concentration at which changes in dye binding were observed was noted as the minimal effective concentration. The compound of formula (VIII) wherein Z=3-quinolyl affected […] and steatosis in human HepG2 hepatocytes at 30 μM.

[1] = system: cryopreserved human hepatocytes; settings: 4 h
Excerpt: In a second experiment, the hepatotoxicity of compound (III) was estimated using cryopreserved human hepatocytes pooled from four donors, measuring leakage of cellular lactate dehydrogenase (LDH). Each donor was selected for the study based on the activity of cytochrome P450 (phase I) and uridine diphosphoglucuronosyl transferases (phase II). Hepatocytes were initially prepared from human livers by collagenase perfusion and subsequently cryogenically frozen. Viable cryopreserved hepatocytes were enriched in accordance with BD Biosciences Discovery Labware SOP HP-10. Hepatocytes were rapidly thawed, pooled and incubated in Williams' E medium at a density of 2×10^6 cells/ml at 37° C. in an incubator for 30 min. After incubation, the viable cells were separated with 24% Percoll gradient and resuspended in WME at a density of 1×10^6 cells/ml. Initial viability was determined by trypan blue exclusion. Hepatocytes were incubated in a 24-well plate and each well contained 0.25×10^6 cells in 0.5 ml of WME medium. Three wells were used for determination of total LDH activity (cells+media) and the background activity (incubation media only) at the 0 time point. Briefly, a 100 μl aliquot of cell suspensions from these wells was immediately taken and rapidly centrifuged at 14,000 rpm for 15 seconds. The supernatants were transferred to microcentrifuge tubes and stored at ≦4° C. for measurement of LDH activity present in medium at the 0 time point. Another 100 μl aliquot of cell suspension from same wells was removed, mixed with 100 μl of 0.4% Triton and stored at ≦4° C. for measurement of total LDH activity.
Hepatocytes in other wells were incubated with test article at the concentrations of 200, 67, 22, 7.4, 2.5 and 0.82 μM. […] Hepatocytes were exposed to the test substance and the positive control for 4 hours. After incubation, 100 μl aliquots of cell suspensions were taken and rapidly centrifuged at 14,000 rpm for 15 seconds. The supernatants were transferred to microcentrifuge tubes and stored at ≦4° C. for measurement of LDH activity in incubation medium.
LDH activity in both total (medium+cells) and medium was determined by monitoring the enzymatic formation of NADH from NAD^+ in the presence of L-lactic acid. Briefly, post-centrifugation supernatants were diluted 1:40 with phosphate-buffered saline (pH 7.4). A 100 μl aliquot was mixed with 100 μl LDH reagent containing 7.5 mM NAD^+, 50 mM L-lactic acid in 250 mM Tris-HCl buffer (pH 8.9) in a 96-well plate. The increase in fluorescence due to the formation of NADH were kinetically monitored at Ext. 360 nm, Em. 460 nm, using a Fluorescence plate reader. The percent LDH leakage from cells was calculated by comparing incubation medium values with total LDH activity (see Equation below). The cell viability at each concentration of test articles was reported. % LDH leakage=(LDH activity in medium sample/total LDH activity)*100 The data are summarized in Table 17.

[2] = system: Streptococcus pneumoniae ATCC 6303; assay: rat lower respiratory tract infection (lung pneumonia) model; assay type: in vivo; settings: for Log CFU/g (avg, n = 8): rat lungs, 12 hours after the last dose
Protocol: The in vivo efficacy of compounds (II) and (III) were evaluated in a rat lower respiratory tract infection model. Groups of 8 rats were infected intratracheally with 0.5 mL containing 10^6 CFUs of Streptococcus pneumoniae ATCC 6303 in 5% hog gastric mucin. Compounds dissolved in ethanol were administered by oral gavage daily over 3 days starting 18 hours post-inoculation. Lungs were aseptically removed from survivors 12 hours after the last dose and examined for visible signs of infection, then homogenized in sterile PBS and plated for determination of CFUs by log plating on Columbia agar-nalidixic acid plates.

anesthetized rats = assay: Cardiovascular safety, QT interval in anesthetized rats, i.v. bolus; assay type: in vivo, rat; settings: rat
Protocol: Total doses of drug (0.47, 0.94, 1.88, 3.75, 7.5, and 15 mg/kg) or equivalent volumes of vehicle were administered incrementally as an i.v. bolus to groups of 6 anesthetized rats or guinea pigs at 0, 15, 30, 45, 60, and 75 minutes. Hemodynamic parameters including mean arterial pressure (MAP) and heart rate (HR), and ECG parameters (QT and PR intervals and QRS duration) were recorded. For the rat, injection of vehicle gave a 16% increase in QT interval over baseline. For the guinea pig, injection of vehicle gave a 3% increase in QT interval over baseline.

[3] = Pharmacokinetics in the mouse, plasma and lung tissue; assay type: in vivo; settings: oral gavage 10 mg/kg
Protocol: The pharmacokinetics of compounds of formula (VIII) and compounds of formula (II) and (III) were measured in the mouse. Compounds were administered either intravenously (i.v.) at 1 mg/kg, or per oral gavage (p.o.) at 10 mg/kg. Plasma samples were taken and analyzed by LC/MS-MS. For lung tissue pharmacokinetics, lungs were removed and homogenized, followed by analyzis by LC/MS-MS.

For CC1CC(N(C)C)C(O)C(O[C@@H]2[C@@H](C)C(=O)[C@](C)(F)C(=O)O[C@H](CCF)[C@@]3(C)OC(=O)N[C@@H]3[C@@H](C)C(=O)[C@H](C)C[C@@]2(C)OC/C=C/c2ccc3cccnc3c2)O1 (some centres unmarked) [Compound (III), 6-O-(1-(7-quinolyl)-3-propenyl)-11-amino-11-deoxy-3-(descladinosyl)-3-oxo-2,15-difluoroerythromycin A-11,12-cyclic carbamate], which “effects on metabolic stability and steatosis” value (human hepG2 hepatocytes) is on record?
Its value is “No effects”.

What about the “LDH leakage (%)” value ([1]; 0.82 μM) of the same compound?
Its value is 6.1 ± 0.63%.

And the “Viability (%)” value ([1]; 0.82 μM)?
The value was 94 ± 0.63%.

And the “LDH leakage (%)” value ([1]; 2.5 μM)?
Its value is 3.9 ± 2.8%.

What about the “Viability (%)” value ([1]; 2.5 μM) of the same compound?
Its value is 96 ± 2.8%.

What about the “LDH leakage (%)” value ([1]; 7.4 μM) of the same compound?
The value was 10 ± 2.9%.

And the “Viability (%)” value ([1]; 7.4 μM)?
Its value is 90 ± 2.9%.

And the “LDH leakage (%)” value ([1]; 22 μM)?
The value was 12 ± 0.74%.

What about the “Viability (%)” value ([1]; 22 μM) of the same compound?
The value was 88 ± 0.74%.

And the “LDH leakage (%)” value ([1]; 67 μM)?
Its value is 6.7 ± 1.3%.

What about the “Viability (%)” value ([1]; 67 μM) of the same compound?
Its value is 93 ± 1.3%.

And the “LDH leakage (%)” value ([1]; 200 μM)?
Its value is 7.6 ± 4.2%.

What about the “Viability (%)” value ([1]; 200 μM) of the same compound?
Its value is 92 ± 4.2%.

What about the “Log CFU/g (avg, n = 8)” value ([2]; 0.5 mg/kg oral gavage daily over 3 days) of the same compound?
Its value is 3.9 Log CFU/g.

And the “Log CFU/g (avg, n = 8)” value ([2]; 2.5 mg/kg oral gavage daily over 3 days)?
The value was 3.0 Log CFU/g.

And the “% survivors” value ([2]; rat, 0.5 mg/kg oral gavage daily over 3 days)?
Its value is 100%.

What about the “% survivors” value ([2]; rat, 2.5 mg/kg oral gavage daily over 3 days) of the same compound?
Its value is 100%.

What about the “reducing the bacterial load in the rat lungs and increasing survival relative to control animals” value ([2]; rat, oral gavage daily over 3 days) of the same compound?
Its value is “efficacious”.

What about the “effect on the QT interval in the rat” value (anesthetized rats) of the same compound?
The value was “did not prolong the QT interval”.

And the “Lung AUC” value ([3]; mouse lung tissue)?
Its value is 45.9 ug/mL-h.

What about the “Lung Cmax” value ([3]; mouse lung tissue) of the same compound?
The value was 8700 ng/mL.

What about the AUC ([3]; mouse plasma) of the same compound?
The AUC was 16200 ng·h/mL.

And the Cmax ([3]; mouse plasma)?
Its Cmax is 3000 ng/mL.
